Test results published in article PMC11714206, “Massively Parallel Screening of Toll/Interleukin‐1 Receptor (TIR)‐Derived Peptides Reveals Multiple Toll‐Like Receptors (TLRs)‐Targeting Immunomodulatory Peptides” (Advanced Science, 2024).
Each block holds one sequence with its values, some of them ahead of it.

Target: T1, MyD88^TIR (Homo sapiens, UniProt Q99836)
T1 construct: MyD88 (residues 148–296); 6xHis; made in house; host or cells: E. coli BL21 (DE3)
Assay: T‐Surf phage library (P8 and P3) selection against MyD88^TIR, four rounds, NGS read counts
Type: binding
Conditions: for P8_MyD88 Rank (after) / P8_MyD88 Rank (before): P8 library; for P3_MyD88 Rank (after) / P3_MyD88 Rank (before): P3 library; for Population: P8_MyD88 pool: P8 T-Surf phage library, 4th round of selection against MyD88 TIR, share of NGS reads
Procedure, shortened: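 P8 and P3 T‐Surf libraries panned against plate-coated TIR domains (5 µg mL^−1), 1 h binding at RT, acid elution and TG1/helper-phage amplification per round. After four rounds, pools were PCR-barcoded and sequenced (NovaSeq, 100 bp paired-end, Phred ≥30); peptides ranked by read counts.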

[1] = selection against MyD88 TIR, rank by count after grouping
[2] = selection against MyD88 TIR, rank by count before grouping
[3] = P8_MyD88: rank by count after grouping
[4] = P8_MyD88: rank by count before grouping
[5] = P8_MyD88: rank by NGS read count after grouping
[6] = P8_MyD88: rank by NGS read count before grouping
[7] = selection against MyD88, rank by count after grouping
[8] = selection against MyD88, rank by count before grouping
[9] = 4R selection against MyD88, rank after grouping
[10] = 4R selection against MyD88, rank before grouping
[11] = P3_MyD88: rank by count after grouping
[12] = P3_MyD88: rank by count before grouping
[13] = selection against MyD88, rank after grouping
[14] = selection against MyD88, rank before grouping

T1 sequence (Q99836 148-296): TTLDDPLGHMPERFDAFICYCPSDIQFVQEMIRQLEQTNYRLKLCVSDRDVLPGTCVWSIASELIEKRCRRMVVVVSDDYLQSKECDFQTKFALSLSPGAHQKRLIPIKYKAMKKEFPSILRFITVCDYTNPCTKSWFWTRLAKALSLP

Sequence: EWALHQLQQIIKWHQT
- P8_MyD88 Rank (after) [1]: 212
- P8_MyD88 Rank (before) [2]: 323

Sequence: YTALTYSGFHTFRDNV
- P3_MyD88 Rank (after) [1]: 276
- P3_MyD88 Rank (before) [2]: 1642

Sequence: YITWFEDFQQILLFWI
- Rank (after) [5]: 924
- Rank (before) [6]: 2117

Sequence: YAFTCHLHRYLVQRCV
- P3_MyD88 Rank (after) [7]: 692
- P3_MyD88 Rank (before) [8]: 1481

Sequence: DLLLCVFQTFFARLTE
- Rank (after) [5]: 948
- Rank (before) [6]: 2592

Sequence: WPEDYQDIGWFLDNLS
- P8_MyD88 Rank (after) [1]: 202
- P8_MyD88 Rank (before) [2]: 275

Sequence: YELDFSHFWLFEARGDA
- P8_MyD88 Rank (after) [9]: 636
- P8_MyD88 Rank (before) [10]: 1944

Sequence: DSQDLDWLYERLVSLL
- P8_MyD88 Rank (after) [9]: 621
- P8_MyD88 Rank (before) [10]: 2497

Sequence: DHHLDLPRGKAIKPAILR
- Rank (after) [11]: 162
- Rank (before) [12]: 2019

Sequence: YLKWGYPWFGIVCVL
- Rank (after) [11]: 166
- Rank (before) [12]: 855

Sequence: WALDELLKILHADETM
- P8_MyD88 Rank (after) [7]: 687
- P8_MyD88 Rank (before) [8]: 1492

Sequence: GLSWGPYEWCRGLYDA
- P8_MyD88 Rank (after) [7]: 770
- P8_MyD88 Rank (before) [8]: 2294

Sequence: SSFREDLCRLLALSNK
- P3_MyD88 Rank (after) [1]: 286
- P3_MyD88 Rank (before) [2]: 3226

Sequence: LGYHWIDWEYFV
- Population: 0.0274%

Sequence: WALDDLLQILQARELF
- Rank (after) [5]: 988
- Rank (before) [6]: 1523

Sequence: NQWRNALIAAVNLSGC
- P3_MyD88 Rank (after) [7]: 700
- P3_MyD88 Rank (before) [8]: 3485

Sequence: DHHLDLPRGKAINRKFW
- Rank (after) [11]: 102
- Rank (before) [12]: 355

Sequence: YNLISHLYDAMHRNRI
- P3_MyD88 Rank (after) [13]: 549
- P3_MyD88 Rank (before) [14]: 1746

Sequence: LKVESCRQALEKTGKL
- Rank (after) [11]: 181
- Rank (before) [12]: 2473

Sequence: NELVNVWSSKANSQVG
- P3_MyD88 Rank (after) [7]: 691
- P3_MyD88 Rank (before) [8]: 3451

Sequence: LQNQWKLALNKVANLP
- Rank (after) [11]: 417
- Rank (before) [12]: 2361

The remaining lines, values ahead:

- Rank (after) [3]: 389
- Rank (before) [4]: 1902
Sequence: YASSSWALNELPRILY

- Rank (after) [11]: 97
- Rank (before) [12]: 342
Sequence: YLKWGYPWFWDRLRYAM

- P8_MyD88 Rank (after) [13]: 492
- P8_MyD88 Rank (before) [14]: 3834
Sequence: NYGSNSWALNKLLEIL

- Rank (after) [5]: 879
- Rank (before) [6]: 3429
Sequence: PQDLEWFYERMVGLIL

- Rank (after) [11]: 397
- Rank (before) [12]: 1635
Sequence: YTALANSGCHTFRDND

- P3_MyD88 Rank (after) [1]: 222
- P3_MyD88 Rank (before) [2]: 2409
Sequence: LKWGSVFLEQTALCD

- P3_MyD88 Rank (after) [9]: 643
- P3_MyD88 Rank (before) [10]: 2616
Sequence: RSSAFQQQLVMALKAQ

- Rank (after) [3]: 100
- Rank (before) [4]: 106
- Population: 0.022%
Sequence: SEDTRNNFLYHLYEAL

- P8_MyD88 Rank (after) [13]: 522
- P8_MyD88 Rank (before) [14]: 2962
Sequence: DPQDPDWCYERLVSLI

- Rank (after) [11]: 121
- Rank (before) [12]: 3183
Sequence: SSFREGLWRLPELSRK

- P8_MyD88 Rank (after) [1]: 215
- P8_MyD88 Rank (before) [2]: 1788
Sequence: YASYDDNDYYWVTHVLLRFV

- P3_MyD88 Rank (after) [1]: 234
- P3_MyD88 Rank (before) [2]: 1531
Sequence: YAFTGHLQRYLVQRCV

- P3_MyD88 Rank (after) [7]: 698
- P3_MyD88 Rank (before) [8]: 3527
Sequence: NQWRNELTPAANLSGW

- P8_MyD88 Rank (after) [13]: 502
- P8_MyD88 Rank (before) [14]: 3704
Sequence: SAASDDFWDGLIRMIE

- P3_MyD88 Rank (after) [7]: 685
- P3_MyD88 Rank (before) [8]: 2792
Sequence: HLLKEFDKKLIPRLK

- Rank (after) [5]: 899
- Rank (before) [6]: 2077
Sequence: YLRRSVFQTMLARRTE

- Rank (after) [5]: 966
- Rank (before) [6]: 1904
Sequence: YASSSWELDELLRIPY

- P3_MyD88 Rank (after) [9]: 633
- P3_MyD88 Rank (before) [10]: 1826
Sequence: GEVPRYIFTGHLHATQ

- Rank (after) [11]: 460
- Rank (before) [12]: 2535
Sequence: LKEEHCHQALEKAGKL

- P3_MyD88 Rank (after) [1]: 220
- P3_MyD88 Rank (before) [2]: 3622
Sequence: KEVEGWRDALPTVASL

- P3_MyD88 Rank (after) [13]: 554
- P3_MyD88 Rank (before) [14]: 2014
Sequence: DHHLDLPRGKAIQPDILG

- Rank (after) [5]: 995
- Rank (before) [6]: 2450
Sequence: DWVWDYLLQILHARELF

- P3_MyD88 Rank (after) [7]: 687
- P3_MyD88 Rank (before) [8]: 1651
Sequence: YTALTNRGFHTFRDHH

- Rank (after) [5]: 942
- Rank (before) [6]: 2163
Sequence: VANIGLIGSILWALK

- P8_MyD88 Rank (after) [9]: 605
- P8_MyD88 Rank (before) [10]: 1355
Sequence: WFWQSLRNTIIMDNQA

- P3_MyD88 Rank (after) [9]: 581
- P3_MyD88 Rank (before) [10]: 1523
Sequence: YAFTGHLHRIWCSVA

- P3_MyD88 Rank (after) [13]: 563
- P3_MyD88 Rank (before) [14]: 2328
Sequence: LEWGEPIVLEKQRSVT

- Rank (after) [5]: 881
- Rank (before) [6]: 2584
Sequence: DLYDILYLYGRHTIFV

- Rank (after) [11]: 424
- Rank (before) [12]: 3274
Sequence: SSRRERLWRLLELSKK
